Molecular target: α1β2γ2 GABAA receptor (Homo sapiens (Human), UniProt P14867+P47870)
Assay: Patch clamp electrophysiology of recombinant α1β2γ2 GABAA receptors in LTK cells
Format: cell-based
Details: 10 μM compound, Qpatch, Ltk cells, GABA EC20 2 μM; for activity at 10 µM: LTK, read-out: α1β2γ2 GABA Qpatch in Ltk (Efficacy at 10 μm)
Procedure: Cellular electrophysiology is used to measure the pharmacological properties of our GABAA receptor modulators in heterologous cell systems. Each compound is tested for its ability to affect GABA mediated currents at a submaximal agonist dose (GABA EC20=2 μM). LTK cells are stably transfected with the α1β2γ2 subunits of the GABA receptor and CHO cells are transiently transfected with the α4β3δ subunits via the Lipofecatamine method. Cells were passaged at a confluence of about 50-80% and then seeded onto 35 mm sterile culture dishes containing 2 ml culture complete medium without antibiotics or antimycotics. Confluent clusters of cells are electrically coupled (Pritchett et al., 1988). Because responses in distant cells are not adequately voltage clamped and because of uncertainties about the extent of coupling (Verdoorn et al., 1990), cells were cultivated at a density that enables the recording of single cells (without visible connections to other cells).
Whole cell currents were measured with HEKA EPC-10 amplifiers using PatchMaster software or by using the high throughput QPatch platform (Sophion). Bath solution for all experiments contained (in mM): NaCl 137 mM, KCl 4 mM, CaCl2 1.8 mM, MgCl2 1 mM, HEPES 10 mM, D-Glucose 10 mM, pH (NaOH) 7.4. In some cases 0.005% cremophor was also added. Intracellular (pipette) solution contained: KCl 130 mM, MgCl2 1 mM, Mg-ATP 5 mM, HEPES 10 mM, EGTA 5 mM, pH 7.2. During experiments, cells and solutions were maintained at room temperature (19° C.-30° C.). For manual patch clamp recordings, cell culture dishes were placed on the dish holder of the microscope and continuously perfused (1 ml/min) with bath solution. After formation of a Gigaohm seal between the patch electrodes and the cell (pipette resistance range: 2.5 MΩ-6.0 MΩ; seal resistance range: >1 GΩ) the cell membrane across the pipette tip was ruptured to assure electrical access to the cell interior (whole-cell patch-configuration). For experiments using the QPatch system, cells were transferred as suspension to the QPatch system in the bath solution and automated whole cell recordings were performed.
Cells were voltage clamped at a holding potential of −80 mV. For the analysis of test articles, GABA receptors were stimulated by 2 μM GABA after sequential pre-incubation of increasing concentrations of the test article. Pre-incubation duration was 30 s and the duration of the GABA stimulus was 2 s. Test articles were dissolved in DMSO to form stock solutions (10 mM). Test articles were diluted to 0.01, 0.1, 1, and 10 μM in bath solution. All concentrations of test articles were tested on each cell. The relative percentage potentiation was defined as the peak amplitude in response to GABA EC20 in the presence of the test article divided by the peak amplitude in response to GABA EC20 alone, multiplied by 100.

Compound	activity at 10 µM [%]	α1β2γ2 GABA Qpatch in Ltk (Efficacy at 10 μm)
C[C@]12CC[C@H]3[C@@H](CC[C@@H]4C[C@@](O)(CF)CC[C@@H]43)[C@@H]1CC[C@@H]2C(=O)Cn1ncc2ncccc21 [SA-84]	100 to 500	–
C[C@]12CC[C@H]3[C@@H](CC[C@@H]4C[C@@](O)(CF)CC[C@@H]43)[C@@H]1CC[C@@H]2C(=O)Cn1cc2ccncc2n1 [SA-85]	> 500	–
C[C@]12CC[C@H]3[C@@H](CC[C@@H]4C[C@@](O)(CF)CC[C@@H]43)[C@@H]1CC[C@@H]2C(=O)Cn1ncc2ccncc21 [SA-86]	100 to 500	–
C[C@]12CC[C@H]3[C@@H](CC[C@@H]4C[C@@](O)(CF)CC[C@@H]43)[C@@H]1CC[C@@H]2C(=O)Cn1nc2ccc(F)cc2n1 [SA-89]	100 to 500	–
C[C@]12CC[C@H]3[C@@H](CC[C@@H]4C[C@@](O)(C(F)F)CC[C@@H]43)[C@@H]1CC[C@@H]2C(=O)Cn1nnc2ccccc21 [SA-90]	10 to 100	–
C[C@]12CC[C@H]3[C@@H](CC[C@@H]4C[C@@](O)(C(F)F)CC[C@@H]43)[C@@H]1CC[C@@H]2C(=O)Cn1nc2ccccc2n1 [SA-92]	100 to 500	–
C[C@]12CC[C@H]3[C@@H](CC[C@@H]4C[C@@](O)(C(F)F)CC[C@@H]43)[C@@H]1CC[C@@H]2C(=O)Cn1cc2ncccc2n1 [SA-93]	> 500	–
C[C@]12CC[C@H]3[C@@H](CC[C@@H]4C[C@@](O)(C(F)F)CC[C@@H]43)[C@@H]1CC[C@@H]2C(=O)Cn1ncc2ncccc21 [SA-94]	100 to 500	–
C[C@]12CC[C@H]3[C@@H](CC[C@@H]4C[C@@](O)(C(F)F)CC[C@@H]43)[C@@H]1CC[C@@H]2C(=O)Cn1nnc2cnccc21 [SA-96]	100 to 500	–
C[C@]12CC[C@H]3[C@@H](CC[C@@H]4C[C@@](O)(C(F)F)CC[C@@H]43)[C@@H]1CC[C@@H]2C(=O)Cn1nc2ccncc2n1 [SA-97]	> 500	–
C[C@]12CC[C@H]3[C@@H](CC[C@@H]4C[C@@](O)(C(F)F)CC[C@@H]43)[C@@H]1CC[C@@H]2C(=O)Cn1cc2ccncc2n1 [SA-99]	> 500	–
C[C@]12CC[C@H]3[C@@H](CC[C@@H]4C[C@@](O)(C(F)F)CC[C@@H]43)[C@@H]1CC[C@@H]2C(=O)Cn1nc2ccc(F)cc2n1 [SA-104]	100 to 500	–
Cn1c(CC(=O)[C@H]2CC[C@H]3[C@@H]4CC[C@@H]5C[C@](C)(O)CC[C@@H]5[C@H]4CC[C@]23C)nc2ccccc21 [SA-105]	> 500	–
CC[C@@]1(O)CC[C@H]2[C@H](CC[C@@H]3[C@@H]2CC[C@]2(C)[C@@H](C(=O)Cn4cc5ncccc5n4)CC[C@@H]32)C1 [SA-110]	> 500	–
CC[C@@]1(O)CC[C@H]2[C@H](CC[C@@H]3[C@@H]2CC[C@]2(C)[C@@H](C(=O)Cn4ncc5ncccc54)CC[C@@H]32)C1 [SA-111]	> 500	–
CC[C@@]1(O)CC[C@H]2[C@H](CC[C@@H]3[C@@H]2CC[C@]2(C)[C@@H](C(=O)Cn4nnc5cnccc54)CC[C@@H]32)C1 [SA-112]	100 to 500	–
CC[C@@]1(O)CC[C@H]2[C@H](CC[C@@H]3[C@@H]2CC[C@]2(C)[C@@H](C(=O)Cn4nnc5ccncc54)CC[C@@H]32)C1 [SA-113]	100 to 500	–
CC[C@@]1(O)CC[C@H]2[C@H](CC[C@@H]3[C@@H]2CC[C@]2(C)[C@@H](C(=O)Cn4nc5ccncc5n4)CC[C@@H]32)C1 [SA-114]	> 500	–
COC[C@@]1(O)CC[C@H]2[C@H](CC[C@@H]3[C@@H]2CC[C@]2(C)[C@@H](C(=O)Cn4nnc5ccccc54)CC[C@@H]32)C1 [SA-115]	> 500	–
COC[C@@]1(O)CC[C@H]2[C@H](CC[C@@H]3[C@@H]2CC[C@]2(C)[C@@H](C(=O)Cn4cc5ncccc5n4)CC[C@@H]32)C1 [SA-116]	> 500	–
COC[C@@]1(O)CC[C@H]2[C@H](CC[C@@H]3[C@@H]2CC[C@]2(C)[C@@H](C(=O)Cn4ncc5ncccc54)CC[C@@H]32)C1 [SA-117]	> 500	–
COC[C@@]1(O)CC[C@H]2[C@H](CC[C@@H]3[C@@H]2CC[C@]2(C)[C@@H](C(=O)Cn4cc5ccncc5n4)CC[C@@H]32)C1 [SA-118]	> 500	–
COC[C@@]1(O)CC[C@H]2[C@H](CC[C@@H]3[C@@H]2CC[C@]2(C)[C@@H](C(=O)Cn4ncc5ccncc54)CC[C@@H]32)C1 [SA-119]	> 500	–

Compound	activity at 10 µM [%]	α1β2γ2 GABA Qpatch in Ltk (Efficacy at 10 μm)
COC[C@@]1(O)CC[C@H]2[C@H](CC[C@@H]3[C@@H]2CC[C@]2(C)[C@@H](C(=O)Cn4nc5ccc(F)cc5n4)CC[C@@H]32)C1 [SA-122]	100 to 500	–
COC[C@@]1(O)CC[C@H]2[C@H](CC[C@@H]3[C@@H]2CC[C@]2(C)[C@@H](C(=O)Cn4nnc5cnccc54)CC[C@@H]32)C1 [SA-123]	100 to 500	–
COC[C@@]1(O)CC[C@H]2[C@H](CC[C@@H]3[C@@H]2CC[C@]2(C)[C@@H](C(=O)Cn4nnc5ccncc54)CC[C@@H]32)C1 [SA-124]	100 to 500	–
C[C@@]1(O)CC[C@H]2[C@@H](CC[C@@H]3[C@@H]2CC[C@]2(C)[C@@H](C(=O)Cn4nnc5ccccc54)CC[C@@H]32)C1 [SB-1]	100 to 500	–
C[C@@]1(O)CC[C@H]2[C@@H](CC[C@@H]3[C@@H]2CC[C@]2(C)[C@@H](C(=O)Cn4nc5ccccc5n4)CC[C@@H]32)C1 [SB-2]	> 500	–
C[C@@]1(O)CC[C@H]2[C@@H](CC[C@@H]3[C@@H]2CC[C@]2(C)[C@@H](C(=O)Cn4ncc5ncccc54)CC[C@@H]32)C1 [SB-5]	–	B (“B” indicates an efficacy value of >100-500%)
C[C@@]1(O)CC[C@H]2[C@@H](CC[C@@H]3[C@@H]2CC[C@]2(C)[C@@H](C(=O)Cn4nnc5cnccc54)CC[C@@H]32)C1 [SB-7]	100 to 500	–
C[C@@]1(O)CC[C@H]2[C@@H](CC[C@@H]3[C@@H]2CC[C@]2(C)[C@@H](C(=O)Cn4ncc5ccncc54)CC[C@@H]32)C1 [SB-10]	–	B (“B” indicates an efficacy value of >100-500%)
C[C@@]1(O)CC[C@H]2[C@@H](CC[C@@H]3[C@@H]2CC[C@]2(C)[C@@H](C(=O)Cn4nc5ccc(F)cc5n4)CC[C@@H]32)C1 [SB-11]	100 to 500	–
C[C@]12CC[C@H]3[C@@H](CC[C@H]4C[C@@](O)(CF)CC[C@@H]43)[C@@H]1CC[C@@H]2C(=O)Cn1nnc2ccccc21 [SB-12]	100 to 500	–
C[C@]12CC[C@H]3[C@@H](CC[C@H]4C[C@@](O)(CF)CC[C@@H]43)[C@@H]1CC[C@@H]2C(=O)Cn1nc2ccccc2n1 [SB-13]	100 to 500	–
C[C@]12CC[C@H]3[C@@H](CC[C@H]4C[C@@](O)(CF)CC[C@@H]43)[C@@H]1CC[C@@H]2C(=O)Cn1nnc2cnccc21 [SB-14]	10 to 100	–
C[C@]12CC[C@H]3[C@@H](CC[C@H]4C[C@@](O)(CF)CC[C@@H]43)[C@@H]1CC[C@@H]2C(=O)Cn1cc2ncccc2n1 [SB-16]	100 to 500	–
C[C@]12CC[C@H]3[C@@H](CC[C@H]4C[C@@](O)(CF)CC[C@@H]43)[C@@H]1CC[C@@H]2C(=O)Cn1ncc2ncccc21 [SB-17]	10 to 100	–
C[C@]12CC[C@H]3[C@@H](CC[C@H]4C[C@@](O)(CF)CC[C@@H]43)[C@@H]1CC[C@@H]2C(=O)Cn1cc2ccncc2n1 [SB-18]	> 500	–
C[C@]12CC[C@H]3[C@@H](CC[C@H]4C[C@@](O)(CF)CC[C@@H]43)[C@@H]1CC[C@@H]2C(=O)Cn1ncc2ccncc21 [SB-19]	100 to 500	–
C[C@]12CC[C@H]3[C@@H](CC[C@H]4C[C@@](O)(CF)CC[C@@H]43)[C@@H]1CC[C@@H]2C(=O)Cn1nnc2ccncc21 [SB-26]	10 to 100	–
CC[C@@]1(O)CC[C@H]2[C@@H](CC[C@@H]3[C@@H]2CC[C@]2(C)[C@@H](C(=O)Cn4cc5ncccc5n4)CC[C@@H]32)C1 [SB-29]	100 to 500	–
CC[C@@]1(O)CC[C@H]2[C@@H](CC[C@@H]3[C@@H]2CC[C@]2(C)[C@@H](C(=O)Cn4ncc5ncccc54)CC[C@@H]32)C1 [SB-30]	100 to 500	–
CC[C@@]1(O)CC[C@H]2[C@@H](CC[C@@H]3[C@@H]2CC[C@]2(C)[C@@H](C(=O)Cn4ncc5ccncc54)CC[C@@H]32)C1 [SB-32]	100 to 500	–
CC[C@@]1(O)CC[C@H]2[C@@H](CC[C@@H]3[C@@H]2CC[C@]2(C)[C@@H](C(=O)Cn4nc5ccncc5n4)CC[C@@H]32)C1 [SB-34]	> 500	–
CC[C@@]1(O)CC[C@H]2[C@@H](CC[C@@H]3[C@@H]2CC[C@]2(C)[C@@H](C(=O)Cn4nnc5ccccc54)CC[C@@H]32)C1 [SB-35]	10 to 100	–
